Measured values: the supplement of paper PMC9938120

Columns and labels:
Assay in all cases: drug sensitivity score (DSS3, normalised partial AUC of % inhibition dose-response) (DSS (score)); higher = more sensitive (stronger inhibition of viability); extreme values may be limits of the assay
FMOC02_1 = patient-derived low-grade serous ovarian cancer cells; details: 72 h; library: FO5A; assay format: 2D, 384-well, CellTiter-Glo
Summary of the method: (§1)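 On 384-well flat clear-bottom plates carrying compounds at five concentrations across a 10,000-fold range, patient-derived ovarian cancer cells below passage 10 were incubated for 72 h at 37 °C with 5% CO2. CellTiter-Glo readout of viability was processed in Breeze. A higher drug sensitivity score, defined as the partial area under the percent-inhibition dose-response curve divided by the log of the upper asymptote, means greater sensitivity.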

FMOC11 = patient-derived high-grade serous ovarian cancer cells; details: 72 h; library: FO5A; assay format: 2D, 384-well, CellTiter-Glo
Summary of the method: as §1

FMOC03 = patient-derived mucinous ovarian cancer cells; details: 72 h; library: FO5A; assay format: 2D, 384-well, CellTiter-Glo
Summary of the method: as §1

FMOC28 = patient-derived low-grade serous ovarian cancer cells; details: 72 h; library: FO5A; assay format: 2D, 384-well, CellTiter-Glo
Summary of the method: as §1

FMOC06 = patient-derived mucinous ovarian cancer cells; details: 72 h; library: FO5A; assay format: 2D, 384-well, CellTiter-Glo
Summary of the method: as §1

FMOC04 = patient-derived high-grade serous ovarian cancer cells; details: 72 h; library: FO5A; assay format: 2D, 384-well, CellTiter-Glo
Summary of the method: as §1

FMOC25_1 = patient-derived low-grade serous ovarian cancer cells; details: 72 h; library: FO4B; assay format: 2D, 384-well, CellTiter-Glo
Summary of the method: as §1

FMOC25_2 = patient-derived low-grade serous ovarian cancer cells; details: 72 h; library: FO5A; assay format: 2D, 384-well, CellTiter-Glo
Summary of the method: as §1

FMOC14 = patient-derived high-grade serous ovarian cancer cells; details: 72 h; library: FO5A; assay format: 2D, 384-well, CellTiter-Glo
Summary of the method: as §1

FMOC24 = patient-derived high-grade serous ovarian cancer cells; details: 72 h; library: FO5A; assay format: 2D, 384-well, CellTiter-Glo
Summary of the method: as §1

FMOC27 = patient-derived low-grade serous ovarian cancer cells; details: 72 h; library: FO5A; assay format: 2D, 384-well, CellTiter-Glo
Summary of the method: as §1

FMOC17 = patient-derived low-grade serous ovarian cancer cells; details: 72 h; library: FO5A; assay format: 2D, 384-well, CellTiter-Glo
Summary of the method: as §1

FMOC02_3 = patient-derived low-grade serous ovarian cancer cells; details: 72 h; library: FO5A; assay format: 2D, 384-well, CellTiter-Glo
Summary of the method: as §1

FMOC22 = patient-derived mucinous ovarian cancer cells; details: 72 h; library: FO5A; assay format: 2D, 384-well, CellTiter-Glo
Summary of the method: as §1

FMOC02_2 = patient-derived low-grade serous ovarian cancer cells; details: 72 h; library: FO5A; assay format: 2D, 384-well, CellTiter-Glo
Summary of the method: as §1

FMOC09 = patient-derived high-grade serous ovarian cancer cells; details: 72 h; library: FO5A; assay format: 2D, 384-well, CellTiter-Glo
Summary of the method: as §1

Row | SMILES | drug sensitivity score (FMOC02_1) | drug sensitivity score (FMOC11) | drug sensitivity score (FMOC03) | drug sensitivity score (FMOC28) | drug sensitivity score (FMOC06) | drug sensitivity score (FMOC04) | drug sensitivity score (FMOC25_1) | drug sensitivity score (FMOC25_2) | drug sensitivity score (FMOC14) | drug sensitivity score (FMOC24) | drug sensitivity score (FMOC27) | drug sensitivity score (FMOC17) | drug sensitivity score (FMOC02_3) | drug sensitivity score (FMOC22) | drug sensitivity score (FMOC02_2) | drug sensitivity score (FMOC09)
1 | Cc1ccc(NC(=O)c2ccc(CN3CC[C@H](N(C)C)C3)c(C(F)(F)F)c2)cc1Nc1nccc(-c2cncnc2)n1 [Bafetinib] | 0.2 | 0 | 0 | 0.1 | 0 | 0 | 0 | 0 | 0 | 0 | 0 | 0 | 0.1 | 0 | 0 | 0
2 | CCS(=O)(=O)N1CC(CC#N)(n2cc(-c3ncnc4[nH]ccc34)cn2)C1 [Baricitinib] | 0 | 0 | 0 | 0 | 0 | 0 | 0 | 0 | 0 | 0.05 | 0 | 0 | 0 | 0 | 0 | 0
3 | N#CC(c1ccnc(OCc2ccc(CN3CCOCC3)cc2)n1)c1nc2ccccc2s1 (configuration not stated) [Bentamapimod] | 1.1 | 3.2 | 2.8 | 3.8 | 2 | 0.4 | 0.7 | 1 | 2.3 | 5.8 | 0 | 4.2 | 1.7 | 2 | 0.9 | 2.9
4 | C=C(c1ccc(C(=O)O)cc1)c1cc2c(cc1C)C(C)(C)CCC2(C)C [Bexarotene] | 0 | 1.2 | 1.7 | 5.3 | 0 | 0 | 0.3 | 0 | 0 | 0.9 | 1.5 | 0.1 | 4.3 | 1.1 | 6 | 1.8
5 | CC(O)(CS(=O)(=O)c1ccc(F)cc1)C(=O)Nc1ccc(C#N)c(C(F)(F)F)c1 (configuration not stated) [Bicalutamide] | 0.1 | 0 | 0 | 0 | 1.1 | 0 | 0 | 0 | 0 | 0.85 | 0 | 0.9 | 0 | 0 | 0 | 0
6 | CCNC(=O)CCC/C=C\C[C@@H]1[C@@H](/C=C/[C@@H](O)CCc2ccccc2)[C@H](O)C[C@@H]1O [Bimatoprost] | 0 | 0 | 0 | 0 | 0 | 0 | 0 | 0 | 0 | 0 | 0 | 0 | 0 | 0 | 0 | 0
7 | Cn1cnc2c(F)c(Nc3ccc(Br)cc3F)c(C(=O)NOCCO)cc21 [Binimetinib] | 5.5 | 0 | 4.8 | 1.6 | 7.6 | 0 | 6.6 | 3.2 | 0 | 0 | 2.2 | 6 | 7.1 | 3.6 | 7.1 | 4.2
8 | Cc1c(N)nc([C@H](CC(N)=O)NC[C@H](N)C(N)=O)nc1C(=O)N[C@H](C(=O)N[C@H](C)[C@@H](O)[C@H](C)C(=O)N[C@H](C(=O)NCCc1nc(-c2nc(C(=O)NCCC[S+](C)C)cs2)cs1)[C@@H](C)O)[C@@H](OC1OC(CO)C(O)C(O)C1OC1OC(CO)C(O)C(OC(N)=O)C1O)c1cnc[nH]1 (some centres not stated) [Bleomycin] | 3.1 | 3.4 | 0.7 | 2.9 | 3.1 | 0 | 9 | 3.2 | 0.1 | 5.65 | 2.4 | 3.4 | 8.8 | 0.8 | 4.3 | 3.2
9 | Cc1cc2c(F)c(Oc3ncnn4cc(OC[C@@H](C)O)c(C)c34)ccc2[nH]1 [Brivanib] | 0 | 0 | 0 | 0 | 0 | 0 | 0 | 0 | 0 | 0 | 0 | 0 | 0 | 0 | 0 | 0
10 | CCC/C=C/C=C/C(=O)O[C@H]1/C(=C/C(=O)OC)C[C@H]2C[C@H]([C@@H](C)O)OC(=O)C[C@H](O)C[C@@H]3C[C@H](OC(C)=O)C(C)(C)[C@](O)(C[C@@H]4C/C(=C/C(=O)OC)C[C@H](/C=C/C(C)(C)[C@]1(O)O2)O4)O3 [Bryostatin 1] | 6.7 | 2.4 | 0 | 0.7 | 6.8 | 0.7 | 6.6 | 7.1 | 0 | 3.45 | 0.2 | 0 | 4.1 | 2.6 | 1.5 | 0.6
11 | O=C(O)CCCCC(CCSCc1ccccc1)SCc1ccccc1 (configuration not stated) [CPI-613] | 0 | 0 | 0 | 2.8 | 0 | 0 | 0 | 0 | 0 | 0 | 0 | 2.5 | 0 | 0 | 0 | 0
12 | COc1cc2nccc(Oc3ccc(NC(=O)C4(C(=O)Nc5ccc(F)cc5)CC4)cc3)c2cc1OC [Cabozantinib] | 1 | 0 | 0 | 0 | 0 | 0 | 0 | 0 | 0 | 4.45 | 0.8 | 0 | 0 | 0 | 0.1 | 0
13 | CCCCCOC(=O)Nc1nc(=O)n([C@@H]2O[C@H](C)[C@@H](O)[C@H]2O)cc1F [Capecitabine] | 0 | 0.1 | 0.4 | 0 | 0 | 1.95 | 0 | 0.7 | 0.7 | 0.6 | 0 | 0.5 | 0 | 2.5 | 0 | 0
14 | COc1cc2c(Oc3ccc4[nH]c(C)cc4c3F)ncnc2cc1OCCCN1CCCC1 [Cediranib] | 1.1 | 0.2 | 0 | 1 | 0.5 | 0 | 1.7 | 0 | 0 | 1.85 | 0 | 0.2 | 0 | 0 | 0.9 | 0
15 | Cc1ccc(-c2cc(C(F)(F)F)nn2-c2ccc(S(N)(=O)=O)cc2)cc1 [Celecoxib] | 0 | 0 | 0 | 0.3 | 0 | 0 | 0 | 0 | 0 | 0 | 0 | 0 | 0 | 0 | 0 | 0
16 | Cc1cc(Nc2ncc(Cl)c(Nc3ccccc3S(=O)(=O)C(C)C)n2)c(OC(C)C)cc1C1CCNCC1 [Ceritinib] | 2.6 | 0.5 | 1.5 | 0 | 3.7 | 3.15 | 0.6 | 4.8 | 0 | 0.35 | 2.2 | 2.4 | 4.3 | 1.7 | 4.2 | 3.1
17 | Nc1nc(Cl)nc2c1ncn2[C@H]1C[C@H](O)[C@@H](CO)O1 [Cladribine] | 7 | 0.8 | 0.5 | 0.3 | 0.2 | 0.2 | 2.4 | 7.2 | 0 | 0 | 2.3 | 0.4 | 4 | 3.9 | 3.3 | 1.8
18 | C[C@@H](Oc1cc(-c2cnn(C3CCNCC3)c2)cnc1N)c1c(Cl)ccc(F)c1Cl [Crizotinib] | 0.9 | 0 | 0 | 0 | 0 | 0.05 | 0 | 0.4 | 0 | 0.65 | 0 | 0 | 0 | 0 | 0.1 | 0
19 | CC(C)(C)c1nc(-c2cccc(NS(=O)(=O)c3c(F)cccc3F)c2F)c(-c2ccnc(N)n2)s1 [Dabrafenib] | 5.9 | 0 | 0 | 1.4 | 0 | 0 | 1.8 | 4 | 0 | 0 | 0 | 0.1 | 4.7 | 0 | 0.8 | 0
20 | CCN(CC)CCN(Cc1ccc(-c2ccc(C(F)(F)F)cc2)cc1)C(=O)Cn1c(SCc2ccc(F)cc2)nc(=O)c2c1CCC2 [Darapladib] | 0 | 0.1 | 0 | 1.2 | 0 | 0.25 | 0.1 | 0 | 1.3 | 4.2 | 0 | 0 | 1.6 | 0 | 0 | 0
21 | Nc1ncn([C@H]2C[C@H](O)[C@@H](CO)O2)c(=O)n1 [Decitabine] | 0.3 | 5.3 | 0 | 0 | 0.4 | 0 | 0 | 1.5 | 0 | 7.4 | 7.5 | 0.9 | 0.6 | 0.1 | 1.4 | 0
22 | CC(=O)N(O)CCCCCNC(=O)CCC(=O)N(O)CCCCCNC(=O)CCC(=O)N(O)CCCCCN [Deferoxamine] | 0 | 4.5 | 4.1 | 0 | 1.4 | 0 | 1.1 | 0 | 1.2 | 0 | 0 | 0 | 0.2 | 1.1 | 0 | 1.4
